Assay results from US20070128217A1 (priority 2003, published 2007).

Experiments:
[1] = tested on: control sera (pooled serum of ten healthy LUMC hospital workers; commercial negative donor pooled serum from the Dutch bloodbank); type: binding, human; parameters: Binding of Control serum LUMC to linear peptides / Binding of Control serum Blood-bank to linear peptides / Binding of Control serum LUMC to looped peptides / Binding of Control Serum Blood-Bank to Looped peptides / Binding of Control serum LUMC to linear peptides of the protein M of SARS-CoV Urbani / Binding of Control serum Blood-bank to linear peptides of the protein M of SARS-CoV Urbani / Binding of Control serum LUMC to looped peptides of the protein M of SARS-CoV Urbani / Binding of Control Serum Blood-Bank to Looped peptides of the protein M of SARS-CoV Urbani: unit not given here
[2] = tested on: rabbit serum obtained by immunizing a rabbit with the SARS-CoV strain Frankfurt 1; type: binding; parameters: Binding of a rabbit serum to linear peptides / Binding of a rabbit serum to looped peptides / Rabbit serum linear peptides / Rabbit serum looped peptides / Binding of a rabbit serum to linear peptides of protein N of SARS-CoV Urbani (Rabbit serum linear peptides) / Binding of a rabbit serum to looped/cyclic peptides of protein N of SARS-CoV Urbani (Rabbit serum looped peptides): unit not given here
[3] = tested on: antibodies in sera from SARS patients (sera 1a, 1b, 2, 6, 37, 62, London, SARS-yellow, SARS-green); type: binding, human; parameters: Binding of serum 6 to linear peptides of protein X1 of SARS-CoV Urbani / Binding of serum 37 to linear peptides of protein X1 of SARS-CoV Urbani / Binding of serum 6 to looped/cyclic peptide (PEPSCAN-ELISA) / Binding of serum 37 to looped/cyclic peptide (PEPSCAN-ELISA) / Binding of serum 37 to looped/cyclic peptides of protein X1 of SARS-CoV Urbani / Binding of serum 6 to linear peptides of protein X2 / Binding of serum 37 to linear peptides of protein X2 / Binding of serum 37 to looped/cyclic peptides of protein X2 of SARS-CoV Urbani / Binding of serum 6 to linear peptides of protein M of SARS-CoV Urbani / Binding of serum 37 to linear peptides of protein M of SARS-CoV Urbani / Binding of serum 6 to looped/cyclic peptides of protein M of SARS-CoV Urbani / Binding of serum 37 to looped/cyclic peptides of protein M of SARS-CoV Urbani / Binding of serum 6 to linear peptides of protein X3 of SARS-CoV Urbani / Binding of serum 37 to linear peptides of protein X3 of SARS-CoV Urbani / Binding of serum 37 to looped/cyclic peptides of protein X3 of SARS-CoV Urbani / Binding of serum 6 to linear peptides of protein X4 of SARS-CoV Urbani / Binding of serum 37 to linear peptides of protein X4 of SARS-CoV Urbani / Binding of serum 37 to looped/cyclic peptides of protein X4 of SARS-CoV Urbani / Binding of serum 6 to linear peptides of protein X5 of SARS-CoV Urbani / Binding of serum 37 to linear peptides of protein X5 of SARS-CoV Urbani / Binding of serum 37 to looped/cyclic peptides of protein X5 of SARS-CoV Urbani / Binding of serum 6 to linear peptides of protein N of SARS-CoV Urbani / Binding of serum 37 to linear peptides of protein N of SARS-CoV Urbani / Binding of serum 6 to linear peptide (PEPSCAN-ELISA) / Binding of serum 1a to looped/cyclic peptides of protein N of SARS-CoV Urbani / Binding of serum 1b to looped/cyclic peptides of protein N of SARS-CoV Urbani / Binding of serum 2 to looped/cyclic peptides of protein N of SARS-CoV Urbani / Binding of serum 6 to looped/cyclic peptides of protein N of SARS-CoV Urbani / Binding of serum 37 to looped/cyclic peptides of protein N of SARS-CoV Urbani / Binding of serum 62 to looped/cyclic peptides of protein N of SARS-CoV Urbani / Binding of serum London to looped/cyclic peptides of protein N of SARS-CoV Urbani / Binding of serum SARS-green to looped/cyclic peptides of protein N of SARS-CoV Urbani: unit not given here

SEETGTLIVNSVLLF
0.1: Binding of serum SARS-yellow to linear peptides of protein E of SARS-CoV Urbani [3]
0.5: Binding of Control serum Blood-bank to linear peptides [1] | Binding of Control serum LUMC to looped peptides [1] | Binding of serum 6 to looped/cyclic peptides of protein E of SARS-CoV Urbani [3] | Binding of serum London to linear peptides of protein E of SARS-CoV Urbani [3] | Binding of serum London to looped/cyclic peptides of protein E of SARS-CoV Urbani [3] | Binding of serum SARS-yellow to looped/cyclic peptides of protein E of SARS-CoV Urbani [3]
0.3: Binding of serum 1b to looped/cyclic peptides of protein E of SARS-CoV Urbani [3] | Binding of serum 2 to linear peptides of protein E of SARS-CoV Urbani [3] | Binding of serum 2 to looped/cyclic peptides of protein E of SARS-CoV Urbani [3]
0.6: Binding of Control Serum Blood-Bank to Looped peptides [1] | Binding of Control serum LUMC to linear peptides [1]
0.0: Binding of a rabbit serum to looped peptides [2]
0.7: Binding of a rabbit serum to linear peptides [2] | Binding of serum 1b to linear peptides of protein E of SARS-CoV Urbani [3] | Binding of serum 6 to linear peptides of protein E of SARS-CoV Urbani [3] | Binding of serum 37 to linear peptides of protein E of SARS-CoV Urbani [3] | Binding of serum 62 to linear peptides of protein E of SARS-CoV Urbani [3] | Binding of serum 62 to looped/cyclic peptides of protein E of SARS-CoV Urbani [3]
0.9: Binding of serum 1a to linear peptides of protein E of SARS-CoV Urbani [3]
0.4: Binding of serum 1a to looped/cyclic peptides of protein E of SARS-CoV Urbani [3] | Binding of serum 37 to looped/cyclic peptides of protein E of SARS-CoV Urbani [3] | Binding of serum SARS-green to linear peptides of protein E of SARS-CoV Urbani [3] | Binding of serum SARS-green to looped/cyclic peptides of protein E of SARS-CoV Urbani [3]

SFVSEETGTLIVNSV
0.5: Binding of a rabbit serum to linear peptides [2] | Binding of serum 1a to looped/cyclic peptides of protein E of SARS-CoV Urbani [3] | Binding of serum 2 to looped/cyclic peptides of protein E of SARS-CoV Urbani [3] | Binding of serum London to linear peptides of protein E of SARS-CoV Urbani [3] | Binding of serum London to looped/cyclic peptides of protein E of SARS-CoV Urbani [3] | Binding of serum SARS-green to linear peptides of protein E of SARS-CoV Urbani [3]
0.7: Binding of Control Serum Blood-Bank to Looped peptides [1] | Binding of Control serum LUMC to looped peptides [1] | Binding of serum 1b to linear peptides of protein E of SARS-CoV Urbani [3] | Binding of serum 62 to looped/cyclic peptides of protein E of SARS-CoV Urbani [3] | Binding of serum SARS-yellow to looped/cyclic peptides of protein E of SARS-CoV Urbani [3]
0.4: Binding of serum 1b to looped/cyclic peptides of protein E of SARS-CoV Urbani [3] | Binding of serum 6 to looped/cyclic peptides of protein E of SARS-CoV Urbani [3] | Binding of serum SARS-green to looped/cyclic peptides of protein E of SARS-CoV Urbani [3]
0.1: Binding of a rabbit serum to looped peptides [2] | Binding of serum SARS-yellow to linear peptides of protein E of SARS-CoV Urbani [3]
0.8: Binding of serum 37 to linear peptides of protein E of SARS-CoV Urbani [3] | Binding of serum 62 to linear peptides of protein E of SARS-CoV Urbani [3]
0.6: Binding of Control serum LUMC to linear peptides [1] | Binding of serum 2 to linear peptides of protein E of SARS-CoV Urbani [3] | Binding of serum 6 to linear peptides of protein E of SARS-CoV Urbani [3] | Binding of serum 37 to looped/cyclic peptides of protein E of SARS-CoV Urbani [3]
0.9: Binding of Control serum Blood-bank to linear peptides [1] | Binding of serum 1a to linear peptides of protein E of SARS-CoV Urbani [3]

TGTLIVNSVLLFLAF
0.2: Binding of serum SARS-green to looped/cyclic peptides of protein E of SARS-CoV Urbani [3]
0.5: Binding of Control serum LUMC to looped peptides [1] | Binding of a rabbit serum to linear peptides [2]
0.0: Binding of a rabbit serum to looped peptides [2]
0.4: Binding of Control Serum Blood-Bank to Looped peptides [1] | Binding of serum 1a to looped/cyclic peptides of protein E of SARS-CoV Urbani [3] | Binding of serum 2 to looped/cyclic peptides of protein E of SARS-CoV Urbani [3] | Binding of serum SARS-yellow to looped/cyclic peptides of protein E of SARS-CoV Urbani [3]
0.6: Binding of Control serum Blood-bank to linear peptides [1] | Binding of serum 62 to looped/cyclic peptides of protein E of SARS-CoV Urbani [3]
0.3: Binding of Control serum LUMC to linear peptides [1] | Binding of serum 1b to looped/cyclic peptides of protein E of SARS-CoV Urbani [3] | Binding of serum 6 to looped/cyclic peptides of protein E of SARS-CoV Urbani [3] | Binding of serum 37 to looped/cyclic peptides of protein E of SARS-CoV Urbani [3] | Binding of serum London to looped/cyclic peptides of protein E of SARS-CoV Urbani [3]

TLAILTALRLCAYCC
0.2: Binding of serum SARS-yellow to linear peptides of protein E of SARS-CoV Urbani [3]
0.7: Binding of Control Serum Blood-Bank to Looped peptides [1] | Binding of a rabbit serum to linear peptides [2] | Binding of serum 1a to looped/cyclic peptides of protein E of SARS-CoV Urbani [3] | Binding of serum 2 to looped/cyclic peptides of protein E of SARS-CoV Urbani [3] | Binding of serum 6 to looped/cyclic peptides of protein E of SARS-CoV Urbani [3] | Binding of serum 37 to linear peptides of protein E of SARS-CoV Urbani [3] | Binding of serum 37 to looped/cyclic peptides of protein E of SARS-CoV Urbani [3] | Binding of serum 62 to linear peptides of protein E of SARS-CoV Urbani [3] | Binding of serum 62 to looped/cyclic peptides of protein E of SARS-CoV Urbani [3]
0.9: Binding of serum 1b to linear peptides of protein E of SARS-CoV Urbani [3] | Binding of serum SARS-yellow to looped/cyclic peptides of protein E of SARS-CoV Urbani [3]
0.5: Binding of serum London to linear peptides of protein E of SARS-CoV Urbani [3] | Binding of serum London to looped/cyclic peptides of protein E of SARS-CoV Urbani [3] | Binding of serum SARS-green to linear peptides of protein E of SARS-CoV Urbani [3] | Binding of serum SARS-green to looped/cyclic peptides of protein E of SARS-CoV Urbani [3]
0.3: Binding of serum 2 to linear peptides of protein E of SARS-CoV Urbani [3]
0.8: Binding of Control serum LUMC to looped peptides [1] | Binding of serum 1a to linear peptides of protein E of SARS-CoV Urbani [3]
0.6: Binding of Control serum Blood-bank to linear peptides [1] | Binding of serum 1b to looped/cyclic peptides of protein E of SARS-CoV Urbani [3] | Binding of serum 6 to linear peptides of protein E of SARS-CoV Urbani [3]
0.4: Binding of Control serum LUMC to linear peptides [1] | Binding of a rabbit serum to looped peptides [2]

VAALVFLILCFTIKR
0.4: Binding of Control serum LUMC to linear peptides [1] | Binding of serum 1b to looped/cyclic peptides of protein X4 of SARS-CoV Urbani [3] | Binding of serum 2 to linear peptides of protein X4 of SARS-CoV Urbani [3] | Binding of serum SARS-green to looped/cyclic peptides of protein X4 of SARS-CoV Urbani [3]
0.5: Binding of Control serum Blood-bank to linear peptides [1] | Rabbit serum linear peptides [2] | Binding of serum 1b to linear peptides of protein X4 of SARS-CoV Urbani [3] | Binding of serum 6 to linear peptides of protein X4 of SARS-CoV Urbani [3] | Binding of serum SARS-green to linear peptides of protein X4 of SARS-CoV Urbani [3] | Binding of serum SARS-yellow to linear peptides of protein X4 of SARS-CoV Urbani [3] | Binding of serum SARS-yellow to looped/cyclic peptides of protein X4 of SARS-CoV Urbani [3]
0.3: Binding of serum London to looped/cyclic peptides of protein X4 of SARS-CoV Urbani [3]
0.7: Binding of serum 2 to looped/cyclic peptides of protein X4 of SARS-CoV Urbani [3] | Binding of serum 37 to linear peptides of protein X4 of SARS-CoV Urbani [3] | Binding of serum 37 to looped/cyclic peptides of protein X4 of SARS-CoV Urbani [3] | Binding of serum 62 to linear peptides of protein X4 of SARS-CoV Urbani [3] | Binding of serum 62 to looped/cyclic peptides of protein X4 of SARS-CoV Urbani [3]
0.6: Binding of Control serum LUMC to looped peptides [1] | Rabbit serum looped peptides [2] | Binding of serum 1a to linear peptides of protein X4 of SARS-CoV Urbani [3] | Binding of serum 6 to looped/cyclic peptides of protein X4 of SARS-CoV Urbani [3] | Binding of serum London to linear peptides of protein X4 of SARS-CoV Urbani [3]
0.8: Binding of Control Serum Blood-Bank to Looped peptides [1] | Binding of serum 1a to looped/cyclic peptides of protein X4 of SARS-CoV Urbani [3]
